According to patent US4542137A, “Alkylaminodesoxy-1.4;3.6-dianhydrohexitol nitrates substituted by purine bases and pharmaceutical compositions” (priority 1980, dated 1985):

Tested on: mongrel dogs
Assay: circulatory pharmacological effectiveness on narcotised dogs, intravenous
Assay type: in vivo, dog
[1] = dog i.v. ISDN/9c 1, 1d 0.5 mg/kg, 40 min
[2] = dog i.v. ISDN/9c 1, 1d 0.5 mg/kg, 50 min
[3] = dog i.v. ISDN/9c 1, 1d 0.5 mg/kg, 60 min
[4] = dog i.v. ISDN/9c 1, 1d 0.5 mg/kg, 90 min
[5] = dog i.v. ISDN/9c 1, 1d 0.5 mg/kg, 120 min
[6] = dog i.v. ISDN/9c 1, 1d 0.5 mg/kg, 150 min
[7] = dog i.v. ISDN/9c 1, 1d 0.5 mg/kg, 180 min
[8] = dog i.v., before administration (v)

CN(CCCn1cnc2c1c(=O)n(C)c(=O)n2C)[C@H]1CO[C@H]2[C@@H]1OC[C@@H]2O[N+](=O)[O-] [Example 9c, 5-[N-Methyl-N-(3-theophyllin-7-ylpropyl)-amino]-5-desoxy-1.4;3.6-dianhydro-L-iditol 2-nitrate]
BFFem: blood flow in the A. femoralis referred to 20 kg body weight [1]: 44.2 mL/min | HLL: heart capacity left, referred to 20 kg body weight [1]: 0.60 W | HLR: heart capacity right, referred to 20 kg body weight [1]: 63.2 mW | HZV: heart minute volume, referred to 20 kg body weight [1]: 2.71 L/min | LVEDP: end diastolic pressure in the left ventricle [1]: 5.62 mm.Hg | SV: beat volume, referred to 20 kg body weight [1]: 24.9 mL | WAP: pulmonalis resistance, referred to 20 kg body weight [1]: 0.30 U | WFem: moralis resistance, referred to 20 kg body weight [1]: 0.32 KU | WTP: total peripheral resistance, referred to 20 kg body weight [1]: 5.05 U | dp/dt: rate of pressure increase in the left ventricle [1]: 2203.1 mm.Hg/sec | APdiast: diastolic aorta pressure [2]: 88.2 mm.Hg | APsyst: systolic aorta pressure [2]: 142.5 mm.Hg | BFFem: blood flow in the A. femoralis referred to 20 kg body weight [2]: 26.6 mL/min | HF: heart frequency [2]: 105.5 | HLL: heart capacity left, referred to 20 kg body weight [2]: 0.61 W | HLR: heart capacity right, referred to 20 kg body weight [2]: 61.7 mW | HZV: heart minute volume, referred to 20 kg body weight [2]: 2.68 L/min | LVEDP: end diastolic pressure in the left ventricle [2]: 6.19 mm.Hg | SV: beat volume, referred to 20 kg body weight [2]: 25.5 mL | WFem: moralis resistance, referred to 20 kg body weight [2]: 0.31 KU | WTP: total peripheral resistance, referred to 20 kg body weight [2]: 5.24 U | dp/dt: rate of pressure increase in the left ventricle [2]: 2165.6 mm.Hg/sec | APdiast: diastolic aorta pressure [3]: 88.2 mm.Hg | APsyst: systolic aorta pressure [3]: 144.7 mm.Hg | BFFem: blood flow in the A. femoralis referred to 20 kg body weight [3]: 45.8 mL/min | HF: heart frequency [3]: 103.2 | HLL: heart capacity left, referred to 20 kg body weight [3]: 0.59 W | HLR: heart capacity right, referred to 20 kg body weight [3]: 59.1 mW | HZV: heart minute volume, referred to 20 kg body weight [3]: 2.59 L/min | SV: beat volume, referred to 20 kg body weight [3]: 25.1 mL | WAP: pulmonalis resistance, referred to 20 kg body weight [3]: 0.27 U | WFem: moralis resistance, referred to 20 kg body weight [3]: 0.32 KU | WTP: total peripheral resistance, referred to 20 kg body weight [3]: 5.48 U | dp/dt: rate of pressure increase in the left ventricle [3]: 2109.4 mm.Hg/sec | APdiast: diastolic aorta pressure [4]: 90.9 mm.Hg | APsyst: systolic aorta pressure [4]: 148.1 mm.Hg | BFFem: blood flow in the A. femoralis referred to 20 kg body weight [4]: 41.7 mL/min | HF: heart frequency [4]: 98.0 | HLL: heart capacity left, referred to 20 kg body weight [4]: 0.56 W | HLR: heart capacity right, referred to 20 kg body weight [4]: 59.2 mW | HZV: heart minute volume, referred to 20 kg body weight [4]: 2.42 L/min | SV: beat volume, referred to 20 kg body weight [4]: 24.8 mL | WAP: pulmonalis resistance, referred to 20 kg body weight [4]: 0.33 U | WFem: moralis resistance, referred to 20 kg body weight [4]: 0.36 KU | WTP: total peripheral resistance, referred to 20 kg body weight [4]: 6.00 U | dp/dt: rate of pressure increase in the left ventricle [4]: 1987.5 mm.Hg/sec | APdiast: diastolic aorta pressure [5]: 90.9 mm.Hg | APsyst: systolic aorta pressure [5]: 150.0 mm.Hg | BFFem: blood flow in the A. femoralis referred to 20 kg body weight [5]: 39.9 mL/min | HF: heart frequency [5]: 96.7 | HLL: heart capacity left, referred to 20 kg body weight [5]: 0.55 W | HLR: heart capacity right, referred to 20 kg body weight [5]: 60.8 mW | HZV: heart minute volume, referred to 20 kg body weight [5]: 2.39 L/min | LVEDP: end diastolic pressure in the left ventricle [5]: 7.73 mm.Hg | SV: beat volume, referred to 20 kg body weight [5]: 24.7 mL | WAP: pulmonalis resistance, referred to 20 kg body weight [5]: 0.35 U | WFem: moralis resistance, referred to 20 kg body weight [5]: 0.38 KU | WTP: total peripheral resistance, referred to 20 kg body weight [5]: 6.07 U | dp/dt: rate of pressure increase in the left ventricle [5]: 1837.5 mm.Hg/sec | APdiast: diastolic aorta pressure [6]: 88.7 mm.Hg | APsyst: systolic aorta pressure [6]: 148.7 mm.Hg | BFFem: blood flow in the A. femoralis referred to 20 kg body weight [6]: 39.0 mL/min | HF: heart frequency [6]: 98.2 | HLL: heart capacity left, referred to 20 kg body weight [6]: 0.54 W | HLR: heart capacity right, referred to 20 kg body weight [6]: 64.4 mW | HZV: heart minute volume, referred to 20 kg body weight [6]: 2.38 L/min | LVEDP: end diastolic pressure in the left ventricle [6]: 7.87 mm.Hg | SV: beat volume, referred to 20 kg body weight [6]: 24.3 mL | WAP: pulmonalis resistance, referred to 20 kg body weight [6]: 0.40 U | WFem: moralis resistance, referred to 20 kg body weight [6]: 0.37 KU | WTP: total peripheral resistance, referred to 20 kg body weight [6]: 5.92 U | dp/dt: rate of pressure increase in the left ventricle [6]: 1809.4 mm.Hg/sec | APdiast: diastolic aorta pressure [7]: 87.2 mm.Hg | APsyst: systolic aorta pressure [7]: 148.1 mm.Hg | BFFem: blood flow in the A. femoralis referred to 20 kg body weight [7]: 42.8 mL/min | HF: heart frequency [7]: 100.0 | HLL: heart capacity left, referred to 20 kg body weight [7]: 0.55 W | HLR: heart capacity right, referred to 20 kg body weight [7]: 67.5 mW | HZV: heart minute volume, referred to 20 kg body weight [7]: 2.47 L/min | LVEDP: end diastolic pressure in the left ventricle [7]: 7.87 mm.Hg | SV: beat volume, referred to 20 kg body weight [7]: 24.8 mL | WAP: pulmonalis resistance, referred to 20 kg body weight [7]: 0.41 U | WFem: moralis resistance, referred to 20 kg body weight [7]: 0.33 KU | WTP: total peripheral resistance, referred to 20 kg body weight [7]: 5.61 U | dp/dt: rate of pressure increase in the left ventricle [7]: 1743.7 mm.Hg/sec | APdiast: diastolic aorta pressure [8]: 78.7 mm.Hg | APsyst: systolic aorta pressure [8]: 147.2 mm.Hg | BFFem: blood flow in the A. femoralis referred to 20 kg body weight [8]: 48.0 mL/min | HF: heart frequency [8]: 102.5 | HLL: heart capacity left, referred to 20 kg body weight [8]: 0.56 W | HLR: heart capacity right, referred to 20 kg body weight [8]: 63.08 mW | HZV: heart minute volume, referred to 20 kg body weight [8]: 2.62 L/min | PAP: average pressure in the A. pulmonalis [8]: 13.6 mm.Hg | WFem: moralis resistance, referred to 20 kg body weight [8]: 0.29 KU | WTP: total peripheral resistance, referred to 20 kg body weight [8]: 5.15 U | dp/dt: rate of pressure increase in the left ventricle [8]: 1837.5 mm.Hg/sec | BFFem: blood flow in the A. femoralis referred to 20 kg body weight (dog, in vivo): 41.9 mL/min | PRV: pressure in the right atrium (dog, in vivo, iv): 3.0 | LVEDP: end diastolic pressure in the left ventricle (iv): 7.60 mm.Hg | SV: beat volume, referred to 20 kg body weight (iv): 25.9 mL | WAP: pulmonalis resistance, referred to 20 kg body weight (iv): 0.29 U
